We go through 25 substances from patent US20040127446A1 (priority 1992, published 2004).

[invAb] = 3' inverted deoxyabasic cap; [2NH2-N] = 2'-deoxy-2'-amino ribonucleotide (N: the base); [amino-N] = 2'-deoxy-2'-amino nucleotide (N: the base); [I] = hypoxanthine (inosine); m = 2'-O-methyl; r = 2'-OH (RNA)

In this series the test system is minus strand HCV RNA. The series is classed as biochemical, Hepatitis C virus. Conditions: minus strand (−) HCV site, 50 mM Tris-Cl, pH 8.0, 40 mM Mg2+ at 37°, trace substrate, enzymatic nucleic acid concentration of 500 nM or greater.

For the substance “22724 (GGAUGGUUGAUGGCAUGCACUAUGCGCGAGACAGG; sugars from the 5' end mmmmmmmmrrrmmmmmrmmmmmmmmmrmmmmmmmm, [invAb] at 3' end, backbone not given here) [compound 22724]”, the “% Substrate Cleaved in 3 hours” value is listed as 65.16%. The same measure for “22725 (GGAAAAGUGAUGGCAUGCACUAUGCGCGAACAGGA; sugars from the 5' end mmmmmmmmrrrmmmmmrmmmmmmmmmrmmmmmmmm, [invAb] at 3' end, backbone not given here) [compound 22725]”: 94.66%; for “22726 (AGAAGAAUGAUGGCAUGCACUAUGCGCGACGAGGA; sugars from the 5' end mmmmmmmmrrrmmmmmrmmmmmmmmmrmmmmmmmm, [invAb] at 3' end, backbone not given here) [compound 22726]”: 82.14%. Regarding “22727 (GGACGAGUGAUGGCAUGCACUAUGCGCGACUUUGU; sugars from the 5' end mmmmmmmmrrrmmmmmrmmmmmmmmmrmmmmmmmm, [invAb] at 3' end, backbone not given here) [compound 22727]”, the “% Substrate Cleaved in 3 hours” value is 67.20%. Next, “22728 (GGUAGGUUGAUGGCAUGCACUAUGCGCGAAGUGGC; sugars from the 5' end mmmmmmmmrrrmmmmmrmmmmmmmmmrmmmmmmmm, [invAb] at 3' end, backbone not given here) [compound 22728]”: 81.06%; “22752 (AAGAGGAGCCGAAAGGCGAGUGAGGUCUGCGGCGA; 2'-O-methyl at 1, 2, 3, 4, 5, 6, 7, 8, 9, 10, 11, 12, 13, 14, 15, 16, [amino-N] at 17, 27, [invAb] at 3' end, other sugars and backbone not given here) [compound 22752]”: 27.83%. Consider “22753 (UGGAAGAGCCGAAAGGCGAGUGAGGUCUACUGAGA; 2'-O-methyl at 1, 2, 3, 4, 5, 6, 7, 8, 9, 10, 11, 12, 13, 14, 15, 16, [2NH2-N] at 17, 27, [invAb] at 3' end, other sugars and backbone not given here) [compound 22753]”, for which the “% Substrate Cleaved in 3 hours” value was determined as 89.39%.

Regarding “22754 (AGGAGUAGCCGAAAGGCGAGUGAGGUCUGUGGAGG; 2'-O-methyl at 1, 2, 3, 4, 5, 6, 7, 8, 9, 10, 11, 12, 13, 14, 15, 16, [2NH2-N] at 17, 27, [invAb] at 3' end, other sugars and backbone not given here) [compound 22754]”, the “% Substrate Cleaved in 3 hours” value was 50.40%. Next, “22755 (CGAAGCAGCCGAAAGGCGAGUGAGGUCUAUGUGGA; 2'-O-methyl at 1, 2, 3, 4, 5, 6, 7, 8, 9, 10, 11, 12, 13, 14, 15, 16, [2NH2-N] at 17, 27, [invAb] at 3' end, other sugars and backbone not given here) [compound 22755]”: 81.10%. The same measure for “22756 (UGGAAGAGCCGAAAGGCGAGUGAGGUCUGGCGUGA; 2'-O-methyl at 1, 2, 3, 4, 5, 6, 7, 8, 9, 10, 11, 12, 13, 14, 15, 16, [2NH2-N] at 17, 27, [invAb] at 3' end, other sugars and backbone not given here) [compound 22756]”: 73.47%; for “22780 (GACACUGCUGAUGAGGCCGUUAGGCCGAANACACCA; ribozyme; 2'-O-methyl at 1, 2, 3, 4, 5, 6, 7, 15, 16, 17, 18, 19, 20, 21, 22, 23, 24, 25, 26, 31, 32, 33, 34, 35, 36, [I] at 30, [invAb] at 3' end, other sugars and backbone not given here) [compound 22780]”: 87.33%. Next, “22781 (GAGAUGACUGAUGAGGCCGUUAGGCCGAANGCGAAG; 2'-O-methyl at 1, 2, 3, 4, 5, 6, 7, 15, 16, 17, 18, 19, 20, 21, 22, 23, 24, 25, 26, 31, 32, 33, 34, 35, 36, [I] at 30, [invAb] at 3' end, other sugars and backbone not given here) [compound 22781]”: 70.67%; “22782 (GGAUGAGCUGAUGAGGCCGUUAGGCCGAANAGAGGU; 2'-O-methyl at 1, 2, 3, 4, 5, 6, 7, 15, 16, 17, 18, 19, 20, 21, 22, 23, 24, 25, 26, 31, 32, 33, 34, 35, 36, [I] at 30, [invAb] at 3' end, other sugars and backbone not given here) [compound 22782]”: 78.83%; “22783 (UGUGCAGCUGAUGAGGCCGUUAGGCCGAANGAUGAA; 2'-O-methyl at 1, 2, 3, 4, 5, 6, 7, 15, 16, 17, 18, 19, 20, 21, 22, 23, 24, 25, 26, 31, 32, 33, 34, 35, 36, [I] at 30, [invAb] at 3' end, other sugars and backbone not given here) [compound 22783]”: 86.93%. As for “22784 (UGGAUGACUGAUGAGGCCGUUAGGCCGAANCUGUUG; 2'-O-methyl at 1, 2, 3, 4, 5, 6, 7, 15, 16, 17, 18, 19, 20, 21, 22, 23, 24, 25, 26, 31, 32, 33, 34, 35, 36, [I] at 30, [invAb] at 3' end, other sugars and backbone not given here) [compound 22784]”, the “% Substrate Cleaved in 3 hours” value turned out to be 90.41%. On to “22948 (GCGAGCCCUGAUGAGGCCGUUAGGCCGAAACGAGUC; 2'-O-methyl at 1, 2, 3, 4, 5, 6, 7, 15, 16, 17, 18, 19, 20, 21, 22, 23, 24, 25, 26, 31, 32, 33, 34, 35, 36, [invAb] at 3' end, other sugars and backbone not given here) [compound 22948]”, for which the “% Substrate Cleaved in 3 hours” value is recorded as 88.34%.

With “22949 (GCUGGAACUGAUGAGGCCGUUAGGCCGAAACACUGA; 2'-O-methyl at 1, 2, 3, 4, 5, 6, 7, 15, 16, 17, 18, 19, 20, 21, 22, 23, 24, 25, 26, 31, 32, 33, 34, 35, 36, [invAb] at 3' end, other sugars and backbone not given here) [compound 22949]”, the “% Substrate Cleaved in 3 hours” value was determined as 89.16%. Next, “22950 (AGGAUGACUGAUGAGGCCGUUAGGCCGAAAGAGAGG; 2'-O-methyl at 1, 2, 3, 4, 5, 6, 7, 15, 16, 17, 18, 19, 20, 21, 22, 23, 24, 25, 26, 31, 32, 33, 34, 35, 36, [invAb] at 3' end, other sugars and backbone not given here) [compound 22950]”: 83.43%; “22951 (UGAGGAGCUGAUGAGGCCGUUAGGCCGAAACGUGGA; 2'-O-methyl at 1, 2, 3, 4, 5, 6, 7, 15, 16, 17, 18, 19, 20, 21, 22, 23, 24, 25, 26, 31, 32, 33, 34, 35, 36, [invAb] at 3' end, other sugars and backbone not given here) [compound 22951]”: 83.25%. Take “22952 (GACUGGACUGAUGAGGCCGUUAGGCCGAAAUGCACG; 2'-O-methyl at 1, 2, 3, 4, 5, 6, 7, 15, 16, 17, 18, 19, 20, 21, 22, 23, 24, 25, 26, 31, 32, 33, 34, 35, 36, [invAb] at 3' end, other sugars and backbone not given here) [compound 22952]”: the “% Substrate Cleaved in 3 hours” value is on record as 86.96%.

Regarding “22976 (AAGAGGAGGCTAGCTACAACGAGCGGCGAN; 3' inverted abasic cap (B); Description of Artificial Sequence: Nucleic Acid; misc_feature (30)..(30): n stands for inverted deoxyabasic derivative; misc_feature (1)..(7): 2'-O-Methyl; misc_feature (23)..(29): 2'-O-Methyl) [compound 22976]”, the “% Substrate Cleaved in 3 hours” value came to 66.06%.

Turning to “22977 (AAGGAGAGGCTAGCTACAACGAGAAGGCGN; 3' inverted abasic cap (B); Description of Artificial Sequence: Nucleic Acid; misc_feature (30)..(30): n stands for inverted deoxyabasic derivative; misc_feature (1)..(7): 2'-O-Methyl; misc_feature (23)..(29): 2'-O-Methyl) [compound 22977]”, the “% Substrate Cleaved in 3 hours” value was 71.28%.

Consider “22978 (AGGAGGAGGCTAGCTACAACGAGAGAGAGN; 3' inverted abasic cap (B); Description of Artificial Sequence: Nucleic Acid; misc_feature (1)..(7): 2'-O-Methyl; misc_feature (23)..(29): 2'-O-Methyl; misc_feature (30)..(30): n stands for inverted deoxyabasic derivative) [compound 22978]”, for which the “% Substrate Cleaved in 3 hours” value came to 61.60%. For “22979 (AGGAGUAGGCTAGCTACAACGAGUGGAGGN; 3' inverted abasic cap (B); Description of Artificial Sequence: Nucleic Acid; misc_feature (30)..(30): n stands for inverted deoxyabasic derivative; misc_feature (1)..(7): 2'-O-Methyl; misc_feature (23)..(29): 2'-O-Methyl) [compound 22979]”, the “% Substrate Cleaved in 3 hours” value is recorded as 85.53%. Next, “22980 (GUUGUGAGGCTAGCTACAACGAUUGGAGGN; 3' inverted abasic cap (B); Description of Artificial Sequence: Nucleic Acid; misc_feature (30)..(30): n stands for inverted deoxyabasic derivative; misc_feature (1)..(7): 2'-O-Methyl; misc_feature (23)..(29): 2'-O-Methyl) [compound 22980]”: 34.60%.
